Assays:
[1] = tested on: Human immunodeficiency virus 1; assay: Antiviral activity against Human immunodeficiency virus 1 NL4-3 infected human HeLa cells assessed as decrease in P24 expression at 100 uM after 72 hr by single cycle replication assay; type: functional; settings: Human immunodeficiency virus 1, NL4-3, HeLa
[2] = Cytotoxicity against Homo sapiens (human) HeLa cells infected with HIV-1 NL4-3 assessed as cell viability at 100 uM by XTT assay; type: cell-based; settings: read-out: Activity

Question: Which inhibition at 100 µM [1] does the source give for `O=c1c(-c2nnc(-c3ccc(Cl)cc3)s2)cnc2ccccn12` here?
Answer: The inhibition at 100 µM was 39%.

Question: And the viability at 100 µM [2]?
Answer: Its viability at 100 µM is 95%.

Question: For `COc1ccc(-c2nnc(-c3cnc4ccccn4c3=O)o2)cc1`, which viability at 100 µM [2] is on record?
Answer: The viability at 100 µM was 100%.

Question: With `Cc1cn([C@H]2C[C@H](N=[N+]=[N-])[C@@H](CO)O2)c(=O)[nH]c1=O` [ZIDOVUDINE] as the compound, how does the inhibition at 100 µM [1] read?
Answer: The inhibition at 100 µM was 100%.

Question: What about the viability at 100 µM [2] of the same compound?
Answer: Its viability at 100 µM is 100%.

Question: For `Cc1ccc(-c2nnc(-c3cnc4ccccn4c3=O)s2)cc1`, which inhibition at 100 µM [1] is on record?
Answer: The inhibition at 100 µM was 51%.

Question: What about the viability at 100 µM [2] of the same compound?
Answer: The viability at 100 µM was 93%.

Question: Which inhibition at 100 µM [1] does the source give for `COc1ccc(-c2nnc(-c3cnc4ccccn4c3=O)s2)cc1` here?
Answer: The inhibition at 100 µM was 28%.

Question: And the viability at 100 µM [2]?
Answer: The viability at 100 µM was 97%.

Question: Which inhibition at 100 µM [1] does the source give for `O=c1c(-c2nnc(-c3ccc(F)cc3)s2)cnc2ccccn12` here?
Answer: The inhibition at 100 µM was 48%.

Question: And the viability at 100 µM [2]?
Answer: Its viability at 100 µM is 92%.

Question: Which results are given for `O=c1c(-c2nnc(S)o2)cnc2ccccn12`?
Answer: inhibition at 100 µM [1]: 11%; viability at 100 µM [2]: 100%

Question: Which inhibition at 100 µM [1] does the source give for `O=c1c(-c2nnc(-c3ccc(F)cc3)o2)cnc2ccccn12` here?
Answer: The inhibition at 100 µM was 18%.

Question: What about the viability at 100 µM [2] of the same compound?
Answer: The viability at 100 µM was 100%.

Question: With `O=c1c(-c2nnc(-c3ccccc3)o2)cnc2ccccn12` as the compound, how does the viability at 100 µM [2] read?
Answer: Its viability at 100 µM is 98%.

Question: Which inhibition at 100 µM [1] does the source give for `O=c1c(-c2nnc(-c3ccccc3)s2)cnc2ccccn12` here?
Answer: The inhibition at 100 µM was 33%.

Question: What about the viability at 100 µM [2] of the same compound?
Answer: Its viability at 100 µM is 100%.

Question: For `Nc1nnc(-c2cnc3ccccn3c2=O)o1`, which viability at 100 µM [2] is on record?
Answer: The viability at 100 µM was 96%.

Question: Which results are given for `O=c1c(-c2nnc(-c3ccc(Cl)cc3)o2)cnc2ccccn12`?
Answer: inhibition at 100 µM [1]: 26%; viability at 100 µM [2]: 94%

Question: Which inhibition at 100 µM [1] does the source give for `Cc1ccc(-c2nnc(-c3cnc4ccccn4c3=O)o2)cc1` here?
Answer: Its inhibition at 100 µM is 29%.

Question: What about the viability at 100 µM [2] of the same compound?
Answer: Its viability at 100 µM is 94%.
